The supplement of paper PMC10307832

Legend:
Assay in all cases: relative viability (nuclei count vs DMSO), 5 days (fraction); higher = more cells survive
[1] = compound: CCN1CCC(CC1)N2C=C(N=N2)CNC3=CC4=C(C(=CN=C4C(=C3)Cl)C#N)NC5=CC(=C(C=C5)F)Cl [KIN001-266]
Summary of the method: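 Five library-drug doses spaced by √10 were pinned onto vehicle-anchored 1536-well plates of lung cancer cell lines that had been kept overnight at 37 °C. Cells went 5 days without medium change, then were fixed, permeabilised and Hoechst-stained together, imaged at 4× and counted by MetaXpress. Viability is the ratio of treated-well to vehicle-well nuclei, taken as a median over plates. Plates required control CV below 25% and at least one doubling.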

[2] = compound: CCN1CCC(CC1)N2C=C(N=N2)CNC3=CC4=C(C(=CN=C4C(=C3)Cl)C#N)NC5=CC(=C(C=C5)F)Cl [KIN001-266] + Cc1cc(Nc2cc(N3CCN(C)CC3)nc(Sc3ccc(NC(=O)C4CC4)cc3)n2)n[nH]1 [Tozasertib] (partner 0.1 µM)
Summary of the method: (§1)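 After 5 days of treatment, lung cancer cells in 1536-well plates were fixed and stained in a single step (final 0.05% Triton X-100, 1% formaldehyde, 1 ug/ml Hoechst) and their nuclei counted on 4× images. Treatment had been applied by pin tool the day after seeding as one drug alone or as a fixed anchor-drug dose with five library-drug doses (not always all listed) in √10 steps. Relative viability is the nuclei count of treated wells divided by that of vehicle wells, and values are medians of duplicate plates.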

[3] = compound: CCN1CCC(CC1)N2C=C(N=N2)CNC3=CC4=C(C(=CN=C4C(=C3)Cl)C#N)NC5=CC(=C(C=C5)F)Cl [KIN001-266] + Nc1nc2[nH]cc(CCc3ccc(C(=O)N[C@@H](CCC(=O)O)C(=O)O)cc3)c2c(=O)[nH]1 [Pemetrexed] (partner 0.2 µM)
Summary of the method: as §1

[4] = compound: CCN1CCC(CC1)N2C=C(N=N2)CNC3=CC4=C(C(=CN=C4C(=C3)Cl)C#N)NC5=CC(=C(C=C5)F)Cl [KIN001-266] + CC(=O)c1c(C)c2cnc(Nc3ccc(N4CCNCC4)cn3)nc2n(C2CCCC2)c1=O [Palbociclib] (partner 0.5 µM)
Summary of the method: as §1

[5] = compound: CCN1CCC(CC1)N2C=C(N=N2)CNC3=CC4=C(C(=CN=C4C(=C3)Cl)C#N)NC5=CC(=C(C=C5)F)Cl [KIN001-266] + Cc1nc(Nc2ncc(C(=O)Nc3c(C)cccc3Cl)s2)cc(N2CCN(CCO)CC2)n1 [Dasatinib] (partner 0.075 µM)
Summary of the method: as §1

[6] = compound: CCN1CCC(CC1)N2C=C(N=N2)CNC3=CC4=C(C(=CN=C4C(=C3)Cl)C#N)NC5=CC(=C(C=C5)F)Cl [KIN001-266] + O=C(c1cc(Cc2n[nH]c(=O)c3ccccc23)ccc1F)N1CCN(C(=O)C2CC2)CC1 [Olaparib] (partner 8 µM)
Summary of the method: as §1

[7] = compound: CCN1CCC(CC1)N2C=C(N=N2)CNC3=CC4=C(C(=CN=C4C(=C3)Cl)C#N)NC5=CC(=C(C=C5)F)Cl [KIN001-266] + CCNC(=O)c1noc(-c2cc(C(C)C)c(O)cc2O)c1-c1ccc(CN2CCOCC2)cc1 [Luminespib] (partner 0.01 µM)
Summary of the method: as §1

[8] = compound: CCN1CCC(CC1)N2C=C(N=N2)CNC3=CC4=C(C(=CN=C4C(=C3)Cl)C#N)NC5=CC(=C(C=C5)F)Cl [KIN001-266] + Nc1ncn([C@H]2C[C@H](O)[C@@H](CO)O2)c(=O)n1 [Decitabine] (partner 2 µM)
Summary of the method: as §1

[9] = compound: CCN1CCC(CC1)N2C=C(N=N2)CNC3=CC4=C(C(=CN=C4C(=C3)Cl)C#N)NC5=CC(=C(C=C5)F)Cl [KIN001-266] + COc1cccc2cc(-c3nc([C@H]4CC[C@H](C(=O)O)CC4)n4ncnc(N)c34)[nH]c12 [OSI-027] (partner 0.5 µM)
Summary of the method: as §1

[10] = compound: CCN1CCC(CC1)N2C=C(N=N2)CNC3=CC4=C(C(=CN=C4C(=C3)Cl)C#N)NC5=CC(=C(C=C5)F)Cl [KIN001-266] + N=C(N)NC(=N)NCCc1ccccc1 [Phenformin] (partner 250 µM)
Summary of the method: as §1

[11] = compound: CCN1CCC(CC1)N2C=C(N=N2)CNC3=CC4=C(C(=CN=C4C(=C3)Cl)C#N)NC5=CC(=C(C=C5)F)Cl [KIN001-266] + NC(=O)Nc1cc(-c2cccc(F)c2)sc1C(=O)N[C@H]1CCCNC1 [AZD7762] (partner 0.2 µM)
Summary of the method: as §1

[12] = compound: CCN1CCC(CC1)N2C=C(N=N2)CNC3=CC4=C(C(=CN=C4C(=C3)Cl)C#N)NC5=CC(=C(C=C5)F)Cl [KIN001-266] + O=C(CCCCCCC(=O)Nc1ccccc1)NO [Vorinostat] (partner 1 µM)
Summary of the method: as §1

[13] = compound: CCN1CCC(CC1)N2C=C(N=N2)CNC3=CC4=C(C(=CN=C4C(=C3)Cl)C#N)NC5=CC(=C(C=C5)F)Cl [KIN001-266] + CC(=O)Nc1cccc(-n2c(=O)n(C3CC3)c(=O)c3c(Nc4ccc(I)cc4F)n(C)c(=O)c(C)c32)c1 [Trametinib] (partner 0.02 µM)
Summary of the method: as §1

[14] = compound: CCN1CCC(CC1)N2C=C(N=N2)CNC3=CC4=C(C(=CN=C4C(=C3)Cl)C#N)NC5=CC(=C(C=C5)F)Cl [KIN001-266] + COc1cc2c(Oc3ccc(NC(=O)C4(C(=O)Nc5ccc(F)cc5)CC4)cc3F)ccnc2cc1OCCCN1CCOCC1 [Foretinib] (partner 0.25 µM)
Summary of the method: as §1

## NCI-H522
[1]; 0.08 µM
  relative viability: 1.13
[1]; 0.253 µM
  relative viability: 0.937
[1]; 0.8 µM
  relative viability: 1.05
[1]; 2.53 µM
  relative viability: 0.925
[1]; 8 µM
  relative viability: 0.914
[2]; first compound 0.08 µM
  relative viability: 0.562
[2]; first compound 0.253 µM
  relative viability: 0.498
[2]; first compound 0.8 µM
  relative viability: 0.566
[2]; first compound 2.53 µM
  relative viability: 0.502
[2]; first compound 8 µM
  relative viability: 0.594
[3]; first compound 0.08 µM
  relative viability: 1.06
[3]; first compound 0.253 µM
  relative viability: 1.01
[3]; first compound 0.8 µM
  relative viability: 1.01
[3]; first compound 2.53 µM
  relative viability: 1.06
[3]; first compound 8 µM
  relative viability: 0.932
[4]; first compound 0.08 µM
  relative viability: 1.04
[4]; first compound 0.253 µM
  relative viability: 1.07
[4]; first compound 0.8 µM
  relative viability: 0.952
[4]; first compound 2.53 µM
  relative viability: 0.95
[4]; first compound 8 µM
  relative viability: 0.804
[5]; first compound 0.08 µM
  relative viability: 0.919
[5]; first compound 0.253 µM
  relative viability: 0.918
[5]; first compound 0.8 µM
  relative viability: 0.853
[5]; first compound 2.53 µM
  relative viability: 0.862
[5]; first compound 8 µM
  relative viability: 0.934
[6]; first compound 0.08 µM
  relative viability: 0.672
[6]; first compound 0.253 µM
  relative viability: 0.785
[6]; first compound 0.8 µM
  relative viability: 0.665
[6]; first compound 2.53 µM
  relative viability: 0.559
[6]; first compound 8 µM
  relative viability: 0.483
[7]; first compound 0.08 µM
  relative viability: 1.09
[7]; first compound 0.253 µM
  relative viability: 1.19
[7]; first compound 0.8 µM
  relative viability: 0.99
[7]; first compound 2.53 µM
  relative viability: 0.912
[7]; first compound 8 µM
  relative viability: 1.05
[8]; first compound 0.08 µM
  relative viability: 0.651
[8]; first compound 0.253 µM
  relative viability: 0.609
[8]; first compound 0.8 µM
  relative viability: 0.777
[8]; first compound 2.53 µM
  relative viability: 0.702
[8]; first compound 8 µM
  relative viability: 0.678
[9]; first compound 0.08 µM
  relative viability: 0.879
[9]; first compound 0.253 µM
  relative viability: 0.74
[9]; first compound 0.8 µM
  relative viability: 0.677
[9]; first compound 2.53 µM
  relative viability: 0.659
[9]; first compound 8 µM
  relative viability: 0.659
[10]; first compound 0.08 µM
  relative viability: 0.656
[10]; first compound 0.253 µM
  relative viability: 0.641
[10]; first compound 0.8 µM
  relative viability: 0.653
[10]; first compound 2.53 µM
  relative viability: 0.629
[10]; first compound 8 µM
  relative viability: 0.591
[11]; first compound 0.08 µM
  relative viability: 0.951
[11]; first compound 0.253 µM
  relative viability: 0.85
[11]; first compound 0.8 µM
  relative viability: 0.786
[11]; first compound 2.53 µM
  relative viability: 0.822
[11]; first compound 8 µM
  relative viability: 0.79
[12]; first compound 0.08 µM
  relative viability: 0.936
[12]; first compound 0.253 µM
  relative viability: 0.887
[12]; first compound 0.8 µM
  relative viability: 0.876
[12]; first compound 2.53 µM
  relative viability: 0.979
[12]; first compound 8 µM
  relative viability: 0.943
[13]; first compound 0.08 µM
  relative viability: 0.78
[13]; first compound 0.253 µM
  relative viability: 0.907
[13]; first compound 0.8 µM
  relative viability: 0.797
[13]; first compound 2.53 µM
  relative viability: 0.638
[13]; first compound 8 µM
  relative viability: 0.706

## NCI-H1623
[1]; 0.08 µM
  relative viability: 0.963
[1]; 0.253 µM
  relative viability: 0.96
[1]; 0.8 µM
  relative viability: 0.955
[1]; 2.53 µM
  relative viability: 1.07
[1]; 8 µM
  relative viability: 1.01
[2]; first compound 0.08 µM
  relative viability: 0.468
[2]; first compound 0.253 µM
  relative viability: 0.421
[2]; first compound 0.8 µM
  relative viability: 0.461
[2]; first compound 2.53 µM
  relative viability: 0.432
[2]; first compound 8 µM
  relative viability: 0.422
[14]; first compound 0.08 µM
  relative viability: 1.05
[14]; first compound 0.253 µM
  relative viability: 0.865
[14]; first compound 0.8 µM
  relative viability: 0.871
[14]; first compound 2.53 µM
  relative viability: 0.894
[14]; first compound 8 µM
  relative viability: 0.875
[5]; first compound 0.08 µM
  relative viability: 0.579
[5]; first compound 0.253 µM
  relative viability: 0.514
[5]; first compound 0.8 µM
  relative viability: 0.447
[5]; first compound 2.53 µM
  relative viability: 0.547
[5]; first compound 8 µM
  relative viability: 0.475
[7]; first compound 0.08 µM
  relative viability: 0.423
[7]; first compound 0.253 µM
  relative viability: 0.624
[7]; first compound 0.8 µM
  relative viability: 0.57
[7]; first compound 2.53 µM
  relative viability: 0.475
[7]; first compound 8 µM
  relative viability: 0.536
[9]; first compound 0.08 µM
  relative viability: 0.457
[9]; first compound 0.253 µM
  relative viability: 0.437
[9]; first compound 0.8 µM
  relative viability: 0.385
[9]; first compound 2.53 µM
  relative viability: 0.453
[9]; first compound 8 µM
  relative viability: 0.433
[10]; first compound 0.08 µM
  relative viability: 0.652
[10]; first compound 0.253 µM
  relative viability: 0.603
[10]; first compound 0.8 µM
  relative viability: 0.577
[10]; first compound 2.53 µM
  relative viability: 0.611
[10]; first compound 8 µM
  relative viability: 0.526
